Strand notation (5' to 3'): a small letter for the sugar, then the base; units joined by * are phosphorothioate-linked, units joined directly phosphodiester-linked; [ ] holds rarer units or linkages, { } end groups; capitals alone tell only the bases. e = 2'-O-(2-methoxyethyl) (MOE); [5mC] = 5-methylcytosine; d = 2'-deoxy (DNA)
tested on: human Factor 7 mRNA; assay: Antisense inhibition of human Factor 7 with short (14-mer) oligonucleotides in HepB3 cells, electroporation 1,000 nM; assay type: cell-based; conditions: electroporation, 1,000 nM antisense oligonucleotide, approximately 24 hours, Factor 7 mRNA relative to untreated control cells
Description: Short antisense oligonucleotides (shortmers) were designed to target a Factor 7 nucleic acid. The shortmers in Table 17 were designed as 2-10-2 MOE gapmers. The gapmers are 14 nucleotides in length, wherein the central gap segment is comprised of 10 2′-deoxynucleotides and is flanked on both sides (in the 5′ and 3′ directions) by wings comprising 2 nucleotides each. Each nucleotide in the 5′ wing segment and each nucleotide in the 3′ wing segment has a 2′-MOE modification. The internucleoside linkages throughout each gapmer are phosphorothioate (P═S) linkages. All cytidine residues throughout each gapmer are 5-methylcytidines.
Shortmers were evaluated for their ability to reduce human Factor 7 mRNA in HepB3 cells and compared with one 5-10-5 chimeric oligonucleotide from Table 16, ISIS 407939. HepB3 cells at a density of 20,000 cells per well in a 96-well plate were transfected using electroporation with 1,000 nM of antisense oligonucleotide. After a treatment period of approximately 24 hours, RNA was isolated from the cells and Factor 7 mRNA levels were measured by real-time RT-PCR, as described herein. Factor 7 mRNA levels were adjusted according to total RNA content as measured by RIBOGREEN®. Results are presented in Table 17 as percent inhibition of Factor 7 mRNA, relative to untreated control cells. ISIS 407939 is the first oligonucleotide in Table 17 to which the shortmers were compared, and is marked by an asterisk (*).

| Substance | % Inhibition |
| --- | --- |
| 435793 (antisense eT*eG*d[5mC]*dA*dG*dT*dA*dG*d[5mC]*dA*dG*dA*eT*eG) [compound 435793] | 27% |
| 435665 (antisense eA*eG*dG*dT*dA*dT*dT*dT*dT*dT*d[5mC]*d[5mC]*eA*e[5mC]) [compound 435665] | 0% |
| 435780 (antisense eG*eG*dA*dG*dG*dG*dA*d[5mC]*dG*dA*d[5mC]*d[5mC]*eT*eT) [compound 435780] | 28% |
| 435485 (antisense eT*e[5mC]*d[5mC]*dT*dG*dG*dG*dT*d[5mC]*dA*dT*d[5mC]*eA*eG) [compound 435485] | 34% |
| 435717 (antisense eT*eG*dA*dG*d[5mC]*dT*dT*dT*dT*dG*d[5mC]*dA*eG*e[5mC]) [compound 435717] | 0% |
| 435778 (antisense eG*e[5mC]*dT*dA*d[5mC]*dT*dG*dG*dG*d[5mC]*d[5mC]*dA*e[5mC]*eG) [compound 435778] | 49% |
| 435737 (antisense eG*eT*dG*d[5mC]*dA*dG*d[5mC]*d[5mC]*d[5mC]*dG*dG*d[5mC]*eA*e[5mC]) [compound 435737] | 70% |
| 435760 (antisense eT*e[5mC]*dT*dT*dG*dG*dG*dT*dG*dT*dG*dG*eA*eT) [compound 435760] | 17% |
| 435827 (antisense eT*e[5mC]*dA*dG*dA*dA*dA*dG*dA*dT*dG*d[5mC]*eA*eG) [compound 435827] | 5% |
| 435650 (antisense e[5mC]*e[5mC]*dG*dG*d[5mC]*d[5mC]*d[5mC]*dT*d[5mC]*dG*dA*dA*eG*eG) [compound 435650] | 6% |
| 435672 (antisense eA*e[5mC]*d[5mC]*d[5mC]*dA*dG*dA*dT*dG*dG*dT*dG*eT*eT) [compound 435672] | 12% |
| 435799 (antisense e[5mC]*eT*dG*dG*dT*d[5mC]*d[5mC]*d[5mC]*d[5mC]*dA*dT*d[5mC]*eT*eG) [compound 435799] | 33% |
| 435828 (antisense eG*eA*d[5mC]*d[5mC]*dT*dG*d[5mC]*d[5mC]*d[5mC]*dA*dT*dT*eT*eT) [compound 435828] | 0% |
| 435670 (antisense e[5mC]*eA*dA*d[5mC]*dA*dG*dG*dA*d[5mC]*d[5mC]*dT*dG*e[5mC]*e[5mC]) [compound 435670] | 47% |
| 435808 (antisense e[5mC]*eT*d[5mC]*dT*dG*dG*dA*d[5mC]*dA*d[5mC]*d[5mC]*dG*eG*eG) [compound 435808] | 66% |
| 435663 (antisense e[5mC]*e[5mC]*dA*d[5mC]*dA*dT*dG*dG*dA*dT*dA*dT*eT*e[5mC]) [compound 435663] | 50% |
| 435693 (antisense eG*eG*d[5mC]*dA*dG*dT*d[5mC]*d[5mC]*dT*dG*dG*dG*eT*e[5mC]) [compound 435693] | 43% |
| 435480 (antisense eG*eG*dT*d[5mC]*dA*dT*d[5mC]*dA*dG*d[5mC]*d[5mC]*dG*eG*eG) [compound 435480] | 53% |
| 435727 (antisense eT*eG*dG*dA*dG*dT*d[5mC]*dA*dG*d[5mC]*dA*dT*e[5mC]*eG) [compound 435727] | 73% |
| 435690 (antisense eG*eT*d[5mC]*d[5mC]*dG*dT*dT*d[5mC]*dG*dG*dG*d[5mC]*eA*eG) [compound 435690] | 55% |
| 435499 (antisense e[5mC]*eT*dG*dG*dG*dA*dG*dA*d[5mC]*d[5mC]*d[5mC]*dT*eG*eG) [compound 435499] | 59% |
| 435832 (antisense eT*eG*d[5mC]*dT*d[5mC]*dA*dG*dA*d[5mC]*d[5mC]*dT*dG*eG*e[5mC]) [compound 435832] | 70% |
| 435739 (antisense e[5mC]*eA*dT*d[5mC]*dT*d[5mC]*dA*dG*dA*dG*dG*dA*eT*eG) [compound 435739] | 5% |
| 435792 (antisense eT*eG*d[5mC]*dT*dG*dA*dA*dG*dA*dA*dA*d[5mC]*eT*eG) [compound 435792] | 9% |
| 435830 (antisense eT*eG*dA*dT*dT*dT*dT*dG*d[5mC]*dA*dA*dA*eG*eA) [compound 435830] | 0% |
| 435748 (antisense eT*e[5mC]*d[5mC]*d[5mC]*dA*dG*dG*dG*dT*d[5mC]*dT*d[5mC]*eT*eG) [compound 435748] | 18% |
| 435677 (antisense eG*eT*dG*d[5mC]*dT*d[5mC]*dG*d[5mC]*d[5mC]*d[5mC]*dA*dG*e[5mC]*eA) [compound 435677] | 60% |

| Substance | % Inhibition |
| --- | --- |
| 435651 (antisense eA*e[5mC]*dA*dG*dT*dT*d[5mC]*d[5mC]*dG*dG*d[5mC]*d[5mC]*e[5mC]*eT) [compound 435651] | 71% |
| 435692 (antisense e[5mC]*eG*dG*dT*d[5mC]*d[5mC]*dA*dG*d[5mC]*dA*dG*d[5mC]*eT*eG) [compound 435692] | 32% |
| 435636 (antisense eG*eA*dG*dA*d[5mC]*d[5mC]*dA*dT*dG*dA*dT*dG*eA*eA) [compound 435636] | 13% |
| 435728 (antisense eA*e[5mC]*dA*d[5mC]*dA*dT*dG*dG*dA*dG*dT*d[5mC]*eA*eG) [compound 435728] | 16% |
| 435716 (antisense eT*eT*dT*dT*dG*d[5mC]*dA*dG*d[5mC]*d[5mC]*dA*d[5mC]*eT*e[5mC]) [compound 435716] | 22% |
| 435751 (antisense e[5mC]*eT*dT*dG*d[5mC]*d[5mC]*dA*dG*dG*dT*d[5mC]*d[5mC]*eT*e[5mC]) [compound 435751] | 28% |
| 435640 (antisense eT*eG*dT*dA*dA*dG*dA*dA*dA*dT*d[5mC]*d[5mC]*eA*eG) [compound 435640] | 2% |
| 435502 (antisense eG*eT*dA*d[5mC]*dT*dG*dG*dG*dA*dG*dA*d[5mC]*e[5mC]*e[5mC]) [compound 435502] | 69% |
| 435796 (antisense eT*eG*dA*d[5mC]*d[5mC]*dA*d[5mC]*dA*d[5mC]*dA*dT*dT*eT*e[5mC]) [compound 435796] | 30% |
| 435839 (antisense eG*eG*dT*d[5mC]*dA*dG*d[5mC]*dT*dG*dG*dT*d[5mC]*eT*eG) [compound 435839] | 14% |
| 435761 (antisense e[5mC]*eA*dG*dA*dT*dG*dA*dA*dA*dA*d[5mC]*dT*eT*eG) [compound 435761] | 5% |
| 435786 (antisense eA*eG*dG*dT*dG*dA*d[5mC]*d[5mC]*d[5mC]*dG*dT*dG*eA*eG) [compound 435786] | 68% |
| 435676 (antisense eG*eA*dT*dT*dT*dT*dG*dT*d[5mC]*dG*dA*dA*eA*e[5mC]) [compound 435676] | 11% |
| 435779 (antisense eT*eG*dA*dG*d[5mC]*dG*d[5mC]*dG*dG*dA*dA*dG*eA*eA) [compound 435779] | 50% |
| 435695 (antisense eG*eA*d[5mC]*dT*dG*d[5mC]*dT*dG*d[5mC]*dA*dG*dG*e[5mC]*eA) [compound 435695] | 48% |
| 435674 (antisense eA*eA*dA*d[5mC]*dA*dG*dT*dG*dG*dG*d[5mC]*d[5mC]*eG*e[5mC]) [compound 435674] | 34% |
| 435675 (antisense eT*eG*dT*d[5mC]*dG*dA*dA*dA*d[5mC]*dA*dG*dT*eG*eG) [compound 435675] | 24% |
| 435656 (antisense eA*e[5mC]*dT*dG*d[5mC]*dT*d[5mC]*dA*d[5mC]*dA*dG*d[5mC]*e[5mC]*eG) [compound 435656] | 58% |
| 435653 (antisense eA*eT*d[5mC]*dA*dG*d[5mC]*dT*dG*dG*dT*d[5mC]*dA*eT*e[5mC]) [compound 435653] | 32% |
| 435688 (antisense eA*e[5mC]*d[5mC]*dA*d[5mC]*dA*dT*dG*dG*dT*d[5mC]*dA*eG*eT) [compound 435688] | 0% |
| 435697 (antisense eA*eG*dT*dA*dG*d[5mC]*d[5mC]*dG*dG*d[5mC]*dA*d[5mC]*eA*eG) [compound 435697] | 53% |
| 435754 (antisense eT*e[5mC]*dA*dG*d[5mC]*dA*dA*dG*dA*dG*dT*dG*e[5mC]*eA) [compound 435754] | 16% |
| 435657 (antisense eG*e[5mC]*dA*dG*dT*dA*d[5mC]*dT*dG*d[5mC]*dT*d[5mC]*eA*e[5mC]) [compound 435657] | 69% |
| 435720 (antisense eA*eG*dG*d[5mC]*dT*d[5mC]*dA*dG*d[5mC]*dT*dG*dG*eG*e[5mC]) [compound 435720] | 16% |
| 435641 (antisense eG*eG*dT*d[5mC]*d[5mC]*d[5mC]*d[5mC]*dA*dT*d[5mC]*dA*d[5mC]*eT*eG) [compound 435641] | 51% |
| 435762 (antisense e[5mC]*eA*dG*dG*dT*dG*dT*dT*dA*dA*dG*dG*eT*eG) [compound 435762] | 0% |
| 435775 (antisense eT*e[5mC]*dT*dG*dG*dA*dA*dG*dG*dA*dA*d[5mC]*eA*eG) [compound 435775] | 25% |

Reference: patent publication US9029337B2, “Modulation of factor 7 expression” (Isis Pharmaceuticals, Inc., priority 2007, dated 2015)
